Source: ChEMBL document CHEMBL5034041, “Discovery of Meso-(meta-Pyridinium) BODIPY Photosensitizers: In Vitro and In Vivo Evaluations for Antimicrobial Photodynamic Therapy” (J Med Chem, 2021)
Each block holds one compound with its values, some of them ahead of it. Activity calls are given as the source filed them. The rule behind the calls is not given here.

Tests used:
[1] = Drug uptake in Staphylococcus aureus ATCC 29213 at 10 uM incubated at 37 degree for 15 mins by UV-vis absorption spectra analysis relative to control; type: ADME; conditions: 0.25 h
[2] = Drug uptake in Escherichia coli ATCC 25922 at 10 uM incubated at 37 degree for 15 mins by UV-vis absorption spectra analysis relative to control; type: ADME; conditions: 0.25 h
[3] = system: Candida albicans; assay: Drug uptake in Candida albicans ATCC 14053 at 10 uM incubated at 37 degree for 15 mins by UV-vis absorption spectra analysis relative to control; type: ADME, organism-based; conditions: 0.25 h
[4] = system: Escherichia coli; assay: Photodynamic antimicrobial activity against Escherichia coli ATCC 25922 preincubated for 15 mins followed by irradiation with 90 mW/cm^2 light for 15 mins and measured after 24 hrs; type: functional; conditions: ATCC 25922, light or radiation study, time 24.5 hrs
[5] = system: Staphylococcus aureus; assay: Photodynamic antimicrobial activity against Staphylococcus aureus ATCC 29213 preincubated for 15 mins followed by irradiation with 90 mW/cm^2 light for 15 mins and measured after 24 hrs; type: functional; conditions: ATCC 29213, light or radiation study, time 24.5 hrs
[6] = system: Candida albicans; assay: Photodynamic antimicrobial activity against Candida albicans ATCC 14053 preincubated for 15 mins followed by irradiation with 90 mW/cm^2 light for 15 mins and measured after 24 hrs; type: functional; conditions: ATCC 14053, light or radiation study, time 24.5 hrs
[7] = system: Staphylococcus aureus; assay: Photodynamic antimicrobial activity against methicillin resistant Staphylococcus aureus ATCC43300 preincubated for 15 mins followed by irradiation with 90 mW/cm^2 light for 15 mins and measured after 24 hrs; type: functional; conditions: ATCC43300, light or radiation study, time 24.5 hrs
[8] = system: Staphylococcus aureus; assay: Photodynamic antimicrobial activity against Staphylococcus aureus […] assessed as loss of microbial viability at 2 uM preincubated for 15 mins followed by light irradiation at 81 J/cm^2 dose for 15 mins and measured after 36 hrs; type: functional; conditions: time 36.5 hrs
[9] = system: Candida albicans; assay: Photodynamic antimicrobial activity against Candida albicans ATCC14053 assessed as loss of microbial viability at 2 uM preincubated for 15 mins followed by light irradiation at 81 J/cm^2 dose for 15 mins and measured after 36 hrs; type: functional; conditions: time 36.5 hrs
[10] = system: Escherichia coli; assay: Photodynamic antimicrobial activity against Escherichia coli ATCC25922 assessed as loss of microbial viability at 2 uM preincubated for 15 mins followed by light irradiation at 81 J/cm^2 dose for 15 mins and measured after 36 hrs; type: functional, ATCC 25922; conditions: time 36.5 hrs
[11] = system: Staphylococcus aureus; assay: Photodynamic antimicrobial activity against Staphylococcus aureus […] assessed as decrease in viable cell log count at 0.31 uM preincubated for 15 mins followed by light irradiation at 81 J/cm^2 dose for 15 mins and measured after 36 hrs; type: functional; conditions: time 36.5 hrs
[12] = system: Staphylococcus aureus; assay: Photodynamic antimicrobial activity against Staphylococcus aureus […] assessed as decrease in viable cell log count at 5 uM preincubated for 15 mins followed by light irradiation at 81 J/cm^2 dose for 15 mins and measured after 36 hrs; type: functional; conditions: time 36.5 hrs
[13] = system: Candida albicans; assay: Photodynamic antimicrobial activity against Candida albicans ATCC14053 assessed as reduction in viable cells log count at 0.5 uM preincubated in dark for 15 mins followed by light irradiation at 81 J/cm^2 dose for 15 mins and measured after 36 hrs; type: functional; conditions: time 36.5 hrs
[14] = system: Candida albicans; assay: Photodynamic antimicrobial activity against Candida albicans ATCC14053 assessed as reduction in viable cells log count at 1 uM preincubated in dark for 15 mins followed by light irradiation at 81 J/cm^2 dose for 15 mins and measured after 36 hrs; type: functional; conditions: time 36.5 hrs
[15] = system: Staphylococcus aureus; assay: Photodynamic antimicrobial activity against methicillin resistant Staphylococcus aureus ATCC43300 assessed as log count reduction in viable cells at 0.625 uM preincubated in dark for 15 mins followed by light irradiation at 81 J/cm^2 dose for 15 mins and measured after 36 hrs; type: functional; conditions: time 36.5 hrs
[16] = system: Staphylococcus aureus; assay: Photodynamic antimicrobial activity against methicillin resistant Staphylococcus aureus ATCC43300 assessed as log count reduction in viable cells at 1.25 uM incubated in dark for 15 mins followed by light irradiation at 81 J/cm^2 dose for 15 mins and measured after 36 hrs; type: functional; conditions: time 36.5 hrs
[17] = system: Escherichia coli; assay: Photodynamic antimicrobial activity against Escherichia coli ATCC25922 assessed as bacterial clearance ratio at 1.25 uM preincubated for 15 mins in dark followed by irradiation with 27 J/cm^2 light for 5 mins and measured after 36 hrs; type: functional, ATCC 25922; conditions: time 2180 min, 36.33 h
[18] = system: Escherichia coli; assay: Photodynamic antimicrobial activity against Escherichia coli ATCC25922 assessed as bacterial clearance ratio at 1.25 uM preincubated for 15 mins in dark followed by irradiation with 54 J/cm^2 light for 10 mins and measured after 36 hrs; type: functional, ATCC 25922; conditions: time 2185 min, 36.42 h
[19] = system: Escherichia coli; assay: Photodynamic antimicrobial activity against Escherichia coli ATCC25922 assessed as bacterial clearance ratio at 1.25 uM preincubated for 15 mins in dark followed by irradiation with 81 J/cm^2 light for 15 mins and measured after 36 hrs; type: functional, ATCC 25922; conditions: time 2190 min, 36.5 h
[20] = system: Escherichia coli; assay: Photodynamic antimicrobial activity against Escherichia coli ATCC25922 assessed as bacterial clearance ratio at 1.25 uM preincubated for 15 mins in dark followed by irradiation with 81 J/cm^2 light for 20 to 25 mins and measured after 36 hrs; type: functional, ATCC 25922; conditions: time 2195-2200 min
[21] = system: HaCaT; assay: Dark toxicity against human HaCat cells assessed as reduction in cell survival upto 20 uM incubated under dark condition for 15 mins by CCK-8 assay; type: cell-based; conditions: 0.25 h
[22] = system: HaCaT; assay: Cytotoxicity against human HaCat Cells assessed as reduction in cell survival preincubated for 15 mins followed by irradiated with light at 81 J/cm^2 for 15 mins and measured after 24 hrs by CCK-8 assay; type: cell-based; conditions: light or radiation study
[23] = system: Candida albicans; assay: Induction of ROS generation in Candida albicans ATCC14053 at 0.16 to 20 uM preincubated for 15 mins followed by irradiation with 81 J/cm^2 light for 15 mins by DCFH-DA staining-based fluorescence microscopy analysis; type: functional, organism-based; conditions: dose 0.16-20 µM, time 30.0 min
[24] = system: Cell membrane; assay: Induction of cell membrane disruption in Staphylococcus aureus ATCC29213 at 2.5 uM preincubated for 15 mins followed by irradiated with 81 J/cm^2 light for 15 mins by DAPI staining based confocal laser scanning microscopic analysis; conditions: time 30.0 min
[25] = system: Cell membrane; assay: Induction of cell membrane disruption in Candida albicans ATCC14053 at 2.5 uM preincubated for 15 mins followed by irradiated with 81 J/cm^2 light for 15 mins by DAPI staining based confocal laser scanning microscopic analysis; conditions: time 30.0 min
[26] = system: Cell membrane; assay: Induction of cell membrane disruption in Escherichia coli ATCC25922 at 5 uM preincubated for 15 mins followed by irradiated with 81 J/cm^2 light for 15 mins by DAPI staining based confocal laser scanning microscopic analysis; conditions: Escherichia coli ATCC 25922, time 30.0 min
[27] = system: Staphylococcus aureus; assay: (§1) In vivo antibacterial activity against Staphylococcus aureus ATCC29213 infected in Swiss albino mouse assessed as wound healing at 10 mg treated on day 2 post infection and followed by irradiation with 81 J/cm^2 light for 15 mins and measured every 3 days upto 8 days; type: functional, organism-based; conditions: time 8.0 day
[28] = system: Staphylococcus aureus; assay: as §1, with “assessed as reduction in neutophils count at 10” for “assessed as wound healing at 10”, “8 days by H and E staining analysis” for “8 days”; type: functional, organism-based; conditions: time 8.0 day
[29] = system: Staphylococcus aureus; assay: Induction of morphological changes in Staphylococcus aureus ATCC 29213 at 10 uM preincubated for 15 mins followed by light irradiation at 90 mW/cm2 for 15 mins by SEM analysis; type: functional, organism-based; conditions: time 30.0 min
[30] = system: Escherichia coli; assay: Induction of morphological changes in Escherichia coli ATCC 25922 at 10 uM preincubated for 15 mins followed by light irradiation at 90 mW/cm2 for 15 mins by SEM analysis; type: functional, organism-based; conditions: time 30.0 min
[31] = system: Candida albicans; assay: Induction of morphological changes in Candida albicans ATCC 14053 at 10 uM preincubated for 15 mins followed by light irradiation at 90 mW/cm2 for 15 mins by SEM analysis; type: functional, organism-based; conditions: time 30.0 min
[32] = Octanol-water partition coefficient, logP of the compound at 2 uM after 20 hrs by HPLC analysis; type: physicochemical
[33] = system: Staphylococcus aureus; assay: Photodynamic antimicrobial activity against methicillin resistant Staphylococcus aureus ATCC43300 assessed as loss of microbial viability at 2 uM preincubated for 15 mins followed by light irradiation at 81 J/cm^2 dose for 15 mins and measured after 36 hrs; type: functional; conditions: time 36.5 hrs
[34] = system: Escherichia coli; assay: Photodynamic antimicrobial activity against Escherichia coli ATCC25922 assessed as decrease in viable cell log count at 1.25 uM preincubated for 15 mins followed by light irradiation at 81 J/cm^2 dose for 15 mins and measured after 36 hrs; type: functional, ATCC 25922; conditions: time 36.5 hrs
[35] = system: Escherichia coli; assay: Photodynamic antimicrobial activity against Escherichia coli ATCC25922 assessed as decrease in viable cell log count at 2.5 uM preincubated for 15 mins followed by light irradiation at 81 J/cm^2 dose for 15 mins and measured after 36 hrs; type: functional, ATCC 25922; conditions: time 36.5 hrs
[36] = system: Escherichia coli; assay: Photodynamic antimicrobial activity against Escherichia coli ATCC25922 assessed as decrease in viable cell log count at 5 uM preincubated for 15 mins followed by light irradiation at 81 J/cm^2 dose for 15 mins and measured after 36 hrs; type: functional, ATCC 25922; conditions: time 36.5 hrs

Compound: CC1=C(I)C(C)=[N+]2C1=C(c1ccc[n+](C)c1)c1c(C)c(I)c(C)n1[B-]2(F)F.[I-]
Drug uptake [1]: 56%
Drug uptake [2]: 47%
Drug uptake [3]: 9%
MIC [4]: 0.63 µM
MIC [5]: 1.25 µM
MIC [6]: 0.63 µM
MIC [7]: 0.63 µM
Activity [8]: >99.9999%
Activity [9]: >99.9%
Activity [10]: 99.9999%
log(activity) [11]: 3.59
log(activity) [12]: 7.05
Activity [13]: 98%
Activity [14]: 99.99%
log(activity) [15]: 3.8
log(activity) [16]: >6.7
Activity [17]: 99.23%
Activity [18]: 99.97%
Activity [19]: >99.9998%
Activity [20]: >99.9998%
Activity [21]: Non-Toxic
IC50 [22]: 3.86 µM
Activity [23]: Active
Activity [24]: Active
Activity [25]: Active
Activity [26]: Active
Activity [27]: Active
Activity [28]: Active
Activity [29]: inactive
Activity [30]: inactive
Activity [31]: inactive
logP at 20 h, 2 µM [32]: 1.44

logP at 20 h, 2 µM [32]: > 4
Compound: CC1=C(I)C(C)=[N+]2C1=C(c1ccccn1)c1c(C)c(I)c(C)n1[B-]2(F)F

Compound: CC1=C(I)C(C)=[N+]2C1=C(c1ccc[n+](Cc3ccccc3)c1)c1c(C)c(I)c(C)n1[B-]2(F)F.[Br-]
Drug uptake [1]: 80%
Drug uptake [2]: 68%
Drug uptake [3]: 25%
MIC [4]: 0.63 µM
MIC [5]: 2.5 µM
MIC [6]: 1.25 µM
MIC [7]: 0.63 µM
Activity [8]: >99.9999%
Activity [9]: Active
logP at 20 h, 2 µM [32]: > 4

Compound: CC1=C(I)C(C)=[N+]2C1=C(c1cc[n+](C)cc1)c1c(C)c(I)c(C)n1[B-]2(F)F.[I-]
Drug uptake [1]: 65%
Drug uptake [2]: 53%
Drug uptake [3]: 23%
MIC [4]: 1.25 µM
MIC [5]: 2.5 µM
MIC [6]: 2.5 µM
MIC [7]: 1.25 µM
Activity [8]: Active
Activity [33]: Active
Activity [9]: 77%
Activity [10]: 99.4%
logP at 20 h, 2 µM [32]: 2.14

logP at 20 h, 2 µM [32]: > 4
Compound: CC1=C(I)C(C)=[N+]2C1=C(c1cccnc1)c1c(C)c(I)c(C)n1[B-]2(F)F

Compound: CCCCCCC[n+]1cccc(C2=C3C(C)=C(I)C(C)=[N+]3[B-](F)(F)n3c(C)c(I)c(C)c32)c1.[I-]
Drug uptake [1]: 72%
Drug uptake [2]: 61%
Drug uptake [3]: 27%
MIC [4]: 0.63 µM
MIC [5]: 2.5 µM
MIC [6]: 1.25 µM
MIC [7]: 0.63 µM
Activity [8]: >99.9999%
Activity [9]: Active
logP at 20 h, 2 µM [32]: > 4

logP at 20 h, 2 µM [32]: > 4
Compound: CC1=C(I)C(C)=[N+]2C1=C(c1ccncc1)c1c(C)c(I)c(C)n1[B-]2(F)F

Compound: CC1=C(I)C(C)=[N+]2C1=C(c1cccc[n+]1C)c1c(C)c(I)c(C)n1[B-]2(F)F.[I-]
Drug uptake [1]: 4%
Drug uptake [2]: 10%
Drug uptake [3]: 4%
MIC [4]: 1.25 µM
MIC [5]: 10 µM
MIC [6]: 2.5 µM
MIC [7]: 1.25 µM
Activity [8]: 99.9%
Activity [9]: 77%
Activity [10]: 99.3%
log(activity) [34]: 2.53
log(activity) [35]: 5.26
log(activity) [36]: 6.62
logP at 20 h, 2 µM [32]: 0.17
